From patent US20260174875A1 (Novo Nordisk A/S, priority 2023, published 2026)
Read-outs that look alike come from different tables or passages of the source. Marks after values point to notes of the source that are not given here. Numbered stars: 1 amine (or outer) side, 2 acyl side, 3 side chain; on linkers, the order of the positions; unused ones are H or OH. Square brackets hold non-standard residues; d marks the D form. Side chains are listed from the residue outwards. * marks the point of attachment. C20 diacid = O=C(O)CCCCCCCCCCCCCCCCCCC(=O)*; C18 diacid = O=C(O)CCCCCCCCCCCCCCCCC(=O)*; C16 diacid = O=C(O)CCCCCCCCCCCCCCC(=O)*; γGlu = O=C(O)[C@H](CCC(=O)[*:2])N[*:1]; AEEA = NCCOCCOCC(=O)O; Aib = CC(C)(N)C(=O)O

Columns and labels:
[1] = biological target: T1, human amylin receptor (hAMYR3) (Homo sapiens, UniProt O60896+P30988); test: Amylin receptor assay, method A (CRE-luciferase reporter, BHK cells); type: cell-based
T1 construct: host or cells: BHK cells (Hollex-1 line expressing hCTR(a) and CRE-Luc), further transfected with human RAMP3

[2] = Chemical stability assessment in formulation (UPLC-UV-MS purity loss at 37° C.); type: physicochemical; details: 8 mM phosphate buffer pH 7.4, 1 mg/mL, 2 weeks
How it was run: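 Peptides at target 1 mg/mL in 8 mM phosphate buffer, pH adjusted to 7.4, incubated in capped vials at 37° C. and sampled over 2 weeks, frozen until analysis. Purity followed by UPLC-UV-MS with a 0.1% formic acid water/acetonitrile gradient.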

[3] = tested on: Male Sprague Dawley (SD) rats; test: Efficacy testing on appetite: acute food intake in ad libitum fed normal weight rats; type: in vivo, rat; details: for Food intake (relative to vehicle) Day 1: day 1 [0-24 hours]; for Food intake (relative to vehicle) Day 2: day 2 [24-48 hours]; for Food intake (relative to vehicle) Day 3: day 3 [48-72 hours]
Text: Male Sprague Dawley (SD) rats from Taconic, Denmark were used for the acute food intake experiments, wherein the principles of laboratory animal care were followed.
The rats arrived at least 10-14 days before the start of the experiment to allow acclimatization to experimental settings. During this period, the animals were handled (fixation by restrain in neck skin) at least 2 times. Immediately upon arrival, rats were changed to a reversed light cycle (dark from 11 am-11 pm) and were transferred to an automated food intake measuring system (HM2 system, MBRose; Faaborg, Denmark). […] To enable recording of individual food intake, rats were ID chipped. Three rats were housed in each cage. During the acclimatization period, in which the rats get used to the new light cycle and diet (LF 10% (D12450B), from Research Diets Inc.), the animals had free access to food and water. Since rats are normally active and consume most of their daily calories during the dark period, rats were dosed in the morning right before lights were turned off. Such a set-up results in the lowest data variation and highest test sensitivity. […] In each cage there were animals from three different treatment groups (to eliminate potential cage effects (e.g. cage malfunction) on primary readout: food intake). The rats were dosed once subcutaneously (s.c.) with the peptide of interest according to body weight (10 or 30 nmol/kg) in vehicle (0.5 ml/kg) using a NovoPen® (Novo Nordisk, Bagsvæed, Denmark).
The compounds of the invention were formulated (20 or 60 nmol/ml) in the following vehicle: 8 mM phosphate; 250 mM glycerol; 0.007% polysorbate 20, pH 7.4.
After dosing, the rats were returned to their home cages, where they continued to have ad libitum access to chow and water. The food consumption was recorded individually and continuously by the HM2 system from 0-72 h after test compound administration. Data obtained by the HM-2 system were stored in a HMBase SQL database (Firebird® relational database management system) and were processed by HM2Lab software (MBRose; Faaborg, Denmark) installed in an embedded computer. The feeding system is a highly sensitive system with a load resolution of 0.001 g.

[4] = hAMYR3 Potency, 1% HSA, EC50, method A, in the presence of 1% HSA
[5] = method A, absence of HSA, read-out: hAMYR3 Potency, no HSA, EC50

T1 sequence (P30988 25-474): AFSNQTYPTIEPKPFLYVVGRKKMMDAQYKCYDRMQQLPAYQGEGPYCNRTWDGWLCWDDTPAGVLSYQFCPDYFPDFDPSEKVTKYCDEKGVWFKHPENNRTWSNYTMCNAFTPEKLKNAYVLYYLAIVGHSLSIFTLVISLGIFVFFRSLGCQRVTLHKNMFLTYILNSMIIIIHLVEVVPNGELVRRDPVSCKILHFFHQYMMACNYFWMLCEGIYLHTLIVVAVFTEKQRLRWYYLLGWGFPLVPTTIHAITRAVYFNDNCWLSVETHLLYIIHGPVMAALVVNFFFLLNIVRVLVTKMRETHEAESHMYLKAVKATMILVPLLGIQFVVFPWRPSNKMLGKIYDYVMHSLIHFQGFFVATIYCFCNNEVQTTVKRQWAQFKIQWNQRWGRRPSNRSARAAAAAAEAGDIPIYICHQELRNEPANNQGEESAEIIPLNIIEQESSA
T1 sequence (O60896 24-148): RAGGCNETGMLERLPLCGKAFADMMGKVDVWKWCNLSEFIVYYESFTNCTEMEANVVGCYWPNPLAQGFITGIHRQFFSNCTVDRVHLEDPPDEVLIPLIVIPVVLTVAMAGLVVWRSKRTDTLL

Row | Substance | EC50 [1, 4] [nM] | EC50 [1, 5] [nM] | Purity loss per week at 37° C. [2] [%] | Food intake (relative to vehicle) Day 1 ([3]; single dose 10 nmol/kg) | Food intake (relative to vehicle) Day 2 ([3]; single dose 10 nmol/kg) [%] | Food intake (relative to vehicle) Day 3 ([3]; single dose 10 nmol/kg) [%] | Food intake (relative to vehicle) Day 1 ([3]; single dose 30 nmol/kg) [%] | Food intake (relative to vehicle) Day 2 ([3]; single dose 30 nmol/kg) [%] | Food intake (relative to vehicle) Day 3 ([3]; single dose 30 nmol/kg) [%]
1 | H[Aib]HGTFTSDYSILLEEQAAREFIEWLLAGGPSK([AEEA-AEEA-γGlu-C18 diacid])GEASHLSTAQTARLSAELHELATLPRTETGSGSP-NH2 [Compound 36] | 0.137 | 0.00384 | – | −44% | −45 | −3 | – | – | –
2 | H[Aib]HGTFTSDYSILLEEQAAREFIEWLLAGGPSK([AEEA-AEEA-γGlu-C20 diacid])GAPPPSGGGEASELSTAALGRLSAELHELATLPRTETGSGSP-NH2 [Compound 16] | 0.166 | 0.0057 | – | −17% | −11 | −10 | −39 | −22 | −17
3 | H[Aib]HGTFTSDYSILLEEQAAREFIEWLLAGGPSSGEASHLSTAALGRLSAK([AEEA-AEEA-γGlu-C18 diacid])LHRLATLPRTETGSGSP-NH2 [Compound 87] | 0.0365 | 0.00499 | – | −91% | −86 | −24 | – | – | –
4 | H[Aib]HGTFTSDYSILLEEQAAREFIEWLLAGGPSSGEASHLSTAQTQRLSAK([AEEA-AEEA-γGlu-C18 diacid])LHRLATLPRTETGSGSP-NH2 [Compound 82] | 0.038 | 0.00326 | – | −94% | −73 | −27 | – | – | –
5 | Y[Aib]EGTFTSDYSILLEEQAAREFIEWLLAGGPSK([AEEA-AEEA-γGlu-C16 diacid])GAPPPSGGGEASELSTAALGRLSAELHELATLPRTETGSGSP-NH2 [compound 10] | 0.175 | 0.0068 | – | −20* % | −4 | −4 | – | – | –
6 | Y[Aib]EGTFTSDYSILLEEQAAREFIEWLLAGGPSK([AEEA-AEEA-γGlu-C16 diacid])GEASELSTAALGRLSAELHELATLPRTETGSGSP-NH2 [Compound 11] | 0.211 | 0.0128 | – | – | – | – | −46 | −45 | −27
7 | Y[Aib]EGTFTSDYSILLEEQAAREFIEWLLAGGPSK([AEEA-AEEA-γGlu-C18 diacid])GEASELSTAALGRLSAELHELATLPRTETGSGSP-NH2 [Compound 26] | 0.349 | 0.0118 | – | – | – | – | −11 | −18 | 0
8 | Y[Aib]EGTFTSDYSILLEEQAAREFIEWLLAGGPSSGAGQAPGASHLSTAQTQRLSAELHK([AEEA-AEEA-γGlu-C18 diacid])LATLPRTETGSGSP-NH2 [Compound 97] | 0.132 | 0.00281 | – | −65% | −82 | −42 | – | – | –
9 | Y[Aib]EGTFTSDYSILLEEQAAREFIEWLLAGGPSSGAGQAPGQAPGASHLSTAQTQRLSAELHK([AEEA-AEEA-γGlu-C18 diacid])LATLPRTETGSGSP-NH2 [compound 52] | 0.119 | 0.00285 | – | – | – | – | – | – | –
10 | Y[Aib]EGTFTSDYSILLEEQAAREFIEWLLAGGPSSGAPPPSGGGEASHLSTAQTQRLSAK([AEEA-AEEA-γGlu-C18 diacid])LHRLATLPRTETGSGSP-NH2 [Compound 109] | 0.032 | 0.00365 | – | −85% | −34 | −28 | – | – | –
11 | Y[Aib]EGTFTSDYSILLEEQAAREFIEWLLAGGPSSGAPPPSGGGEASHLSTAQTQRLSAK([AEEA-AEEA-γGlu-C20 diacid])LHRLATLPRTETGSGSP-NH2 [Compound 110] | 0.094 | 0.00327 | – | −75% | −54 | −23 | – | – | –

The next lines start with results.

Row | EC50 [1, 4] [nM] | EC50 [1, 5] [nM] | Purity loss per week at 37° C. [2] [%] | Substance | Food intake (relative to vehicle) Day 1 ([3]; single dose 10 nmol/kg) | Food intake (relative to vehicle) Day 2 ([3]; single dose 10 nmol/kg) [%] | Food intake (relative to vehicle) Day 3 ([3]; single dose 10 nmol/kg) [%] | Food intake (relative to vehicle) Day 1 ([3]; single dose 30 nmol/kg) [%] | Food intake (relative to vehicle) Day 2 ([3]; single dose 30 nmol/kg) [%] | Food intake (relative to vehicle) Day 3 ([3]; single dose 30 nmol/kg) [%]
12 | 0.055 | 0.00623 | 5.6 | H[Aib]HGTFTSDYSILLEEQAAREFIEWLLAGGPSK([AEEA-AEEA-γGlu-C16 diacid])GAPPPSGGGEASELSTAALGRLSAELHELATLPRTETGSGSP-NH2 [Compound 12] | −70% | −39 | −8 | – | – | –
13 | 0.0955 | 0.00308 | – | H[Aib]HGTFTSDYSILLEEQAAREFIEWLLAGGPSK([AEEA-AEEA-γGlu-C18 diacid])GAPPPSGGGEASHLSTAQTARLSAELHQLATLPRTETGSGSP-NH2 [compound 101] | – | – | – | – | – | –
14 | 0.0334 | 0.00221 | – | H[Aib]HGTFTSDYSILLEEQAAREFIEWLLAGGPSK([AEEA-AEEA-γGlu-C18 diacid])GAPPPSGGGGASELSTAALGRLSAELHRLATLPRTETGSGSP-NH2 [Compound 14] | −78% | −85 | −32 | – | – | –
15 | 0.109 | 0.00191 | 3.3 | H[Aib]HGTFTSDYSILLEEQAAREFIEWLLAGGPSK([AEEA-AEEA-γGlu-C18 diacid])GEASQLSTAALGRLSAELHQLATLPRTETGSGSP-NH2 [Compound 64] | – | – | – | – | – | –
16 | 0.0789 | 0.00343 | – | H[Aib]HGTFTSDYSILLEEQAAREFIEWLLAGGPSRGEASHLSTAQTQRLSAELHK([AEEA-AEEA-γGlu-C18 diacid])LATLPRTETGSGSP-NH2 [Compound 69] | −81% | −68 | −6 | – | – | –
17 | 0.0397 | 0.00312 | – | H[Aib]HGTFTSDYSILLEEQAAREFIEWLLAGGPSSGEASHLSTAALGRLSAELHRLK([AEEA-AEEA-γGlu-C18 diacid])TLPRTETGSGSP-NH2 [Compound 89] | −93% | −78 | −28 | – | – | –
18 | 0.172 | 0.00363 | – | Y[Aib]EGTFTSDYSILLEEQAAREFIEWLLAGGPSK([AEEA-AEEA-γGlu-C18 diacid])GGQAPGQAPGEASHLSTAQTQRLSAELHELATLPRTETGSGSP-NH2 [Compound 38] | −3% | −19 | 1 | – | – | –
19 | 0.23 | 0.00257 | – | Y[Aib]EGTFTSDYSILLEEQAAREFIEWLLAGGPSRGEASHLSTAQTQRLSAELHK([AEEA-AEEA-γGlu-C18 diacid])LATLPRTETGSGSP-NH2 [compound 68] | – | – | – | – | – | –
20 | – | – | 1.1 | Y[Aib]EGTFTSDYSILLEEQAAREFIEWLLAGGPSSGAGQAPGQAPGASHLSTAQTQRLSAELHK([AEEA-AEEA-γGlu-C20 diacid])LATLPRTETGSGSP-NH2 [Compound 115] | −44.5% | −76.5 | −38 | – | – | –
21 | 0.034 | 0.00222 | – | Y[Aib]EGTFTSDYSILLEEQAAREFIEWLLAGGPSSGAGQAPGQAPGASHLSTAQTQRLSAK([AEEA-AEEA-γGlu-C18 diacid])LHRLATLPRTETGSGSP-NH2 [compound 55] | – | – | – | – | – | –
22 | 0.134 | 0.00291 | – | Y[Aib]EGTFTSDYSILLEEQAAREFIEWLLAGGPSSGAGQAPGQAPLASHLSTAQTQRLSAELHK([AEEA-AEEA-γGlu-C18 diacid])LATLPRTETGSGSP-NH2 [compound 58] | – | – | – | – | – | –
23 | 0.129 | 0.00282 | – | Y[Aib]EGTFTSDYSILLEEQAAREFIEWLLAGGPSSGALQAPGQAPLASHLSTAQTQRLSAELHK([AEEA-AEEA-γGlu-C20 diacid])LATLPRTETGSGSP-NH2 [Compound 99] | −69% | −84 | −46 | – | – | –
